Patent US12077503B2, “Substituted cyclic amides and their use as herbicides” (FMC CORPORATION, priority 2015, dated 2024)

Experiments:
Format in all cases: in vivo
corn (Zea mays) [1] = assay: Test G Pre-Emergence Protocol; conditions: Zea mays, pre-emergence, 312 h, evaluated after 13 days; for plant injury at 15.625 g/ha: 15.625 g ai/ha; for plant injury at 15.625 g/ha / plant injury at 250 g/ha: read-out: Corn damage rating (100=total damage to plant; 0=no damage to plant); for plant injury at 62.5 g/ha: 62.5 g ai/ha, 100=total damage to plant, 0=no damage to plant, read-out: plant damage rating, Corn; for plant injury at 250 g/ha: 250 g ai/ha
In short: (§1)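 Spraying took place one day after sowing, at 15.625, 62.5 or 250 g/ha, using an acetone/water (50:50) spray solution containing 0.5% Tween 20. Plants were kept under glasshouse conditions (24/16 °C, 14 h light, 65% humidity, watered twice daily), and injury was rated 0–100 at day 13.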

[2] = test system: redroot pigweed (Amaranthus retroflexus); assay: Test G Pre-Emergence Protocol; conditions: Amaranthus retroflexus, pre-emergence, 312 h, evaluated after 13 days; for pest or weed control at 15.625 g/ha: 15.625 g ai/ha; for pest or weed control at 15.625 g/ha / pest or weed control at 250 g/ha: read-out: Pigweed, Redroot damage rating (100=total damage to plant; 0=no damage to plant); for pest or weed control at 62.5 g/ha: 62.5 g ai/ha, 100=total damage to plant, 0=no damage to plant, read-out: plant damage rating, Pigweed, Redroot; for pest or weed control at 250 g/ha: 250 g ai/ha
In short: as §1

[3] = test system: barnyardgrass (Echinochloa crus-galli); assay: Test G Pre-Emergence Protocol; conditions: Echinochloa crus-galli, pre-emergence, 312 h, evaluated after 13 days; for pest or weed control at 15.625 g/ha: 15.625 g ai/ha, read-out: Barnyard grass damage rating (100=total damage to plant; 0=no damage to plant); for pest or weed control at 62.5 g/ha: 62.5 g ai/ha, 100=total damage to plant, 0=no damage to plant, read-out: plant damage rating, Barnyardgrass; for pest or weed control at 250 g/ha: 250 g ai/ha, read-out: Barnyardgrass damage rating (100=total damage to plant; 0=no damage to plant)
In short: as §1

[4] = test system: giant foxtail (Setaria faberi); assay: Test G Pre-Emergence Protocol; conditions: Setaria faberi, pre-emergence, 312 h, evaluated after 13 days; for pest or weed control at 15.625 g/ha: 15.625 g ai/ha; for pest or weed control at 15.625 g/ha / pest or weed control at 250 g/ha: read-out: Foxtail, Giant damage rating (100=total damage to plant; 0=no damage to plant); for pest or weed control at 62.5 g/ha: 62.5 g ai/ha, 100=total damage to plant, 0=no damage to plant, read-out: plant damage rating, Foxtail, Giant; for pest or weed control at 250 g/ha: 250 g ai/ha
In short: as §1

[5] = test system: velvetleaf (Abutilon theophrasti); assay: Test G Pre-Emergence Protocol; conditions: Abutilon theophrasti, pre-emergence, 312 h, evaluated after 13 days; for pest or weed control at 15.625 g/ha: 15.625 g ai/ha; for pest or weed control at 15.625 g/ha / pest or weed control at 250 g/ha: read-out: Velvetleaf damage rating (100=total damage to plant; 0=no damage to plant); for pest or weed control at 62.5 g/ha: 62.5 g ai/ha, 100=total damage to plant, 0=no damage to plant, read-out: plant damage rating, Velvetleaf; for pest or weed control at 250 g/ha: 250 g ai/ha
In short: as §1

[6] = test system: ivy-leaved morning glory (Ipomoea hederacea); assay: Test G Pre-Emergence Protocol; conditions: Ipomoea, pre-emergence, 312 h, evaluated after 13 days; for pest or weed control at 15.625 g/ha: 15.625 g ai/ha, read-out: Morning-glory, Ivy-leaved damage rating (100=total damage to plant; 0=no damage to plant); for pest or weed control at 62.5 g/ha: 62.5 g ai/ha, 100=total damage to plant, 0=no damage to plant, read-out: plant damage rating, Morningglory, Ivy-leaved; for pest or weed control at 250 g/ha: 250 g ai/ha, read-out: Morningglory, Ivy-leaved damage rating (100=total damage to plant; 0=no damage to plant)
In short: as §1

corn (Zea mays) [7] = assay: Test G Post-Emergence Protocol; conditions: Zea mays, post-emergence, 312 h; for plant injury at 15.625 g/ha: 15.625 g ai/ha, evaluated after 13 days (100=total damage to plant; 0=no damage to plant), read-out: Corn damage rating; for plant injury at 62.5 g/ha: 62.5 g ai/ha, read-out: Corn damage rating (100=total damage to plant; 0=no damage to plant); for plant injury at 62.5 g/ha / plant injury at 250 g/ha: evaluated after 13 days; for plant injury at 250 g/ha: 250 g ai/ha, read-out: damage to plant, Corn (100=total damage to plant; 0=no damage to plant)
In short: (§2)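 Damage was rated 13 days after treatment from 0 (none) to 100 (plant killed). Compound was applied as a spray at 15.625, 62.5 or 250 g/ha in 50:50 acetone/water containing 0.5% Tween 20, onto 8-day-old potted plants kept in a glasshouse (24/16 °C, 14 h light, 65% humidity).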

[8] = test system: redroot pigweed (Amaranthus retroflexus); assay: Test G Post-Emergence Protocol; conditions: Amaranthus retroflexus, post-emergence, 312 h; for pest or weed control at 15.625 g/ha: 15.625 g ai/ha, evaluated after 13 days (100=total damage to plant; 0=no damage to plant), read-out: Pigweed, Redroot damage rating; for pest or weed control at 62.5 g/ha: 62.5 g ai/ha, read-out: Pigweed, Redroot damage rating (100=total damage to plant; 0=no damage to plant); for pest or weed control at 62.5 g/ha / pest or weed control at 250 g/ha: evaluated after 13 days; for pest or weed control at 250 g/ha: 250 g ai/ha, read-out: damage to plant, Pigweed, Redroot (100=total damage to plant; 0=no damage to plant)
In short: as §2

[9] = test system: barnyardgrass (Echinochloa crus-galli); assay: Test G Post-Emergence Protocol; conditions: Echinochloa crus-galli, post-emergence, 312 h; for pest or weed control at 15.625 g/ha: 15.625 g ai/ha, evaluated after 13 days (100=total damage to plant; 0=no damage to plant), read-out: Barnyardgrass damage rating; for pest or weed control at 62.5 g/ha: 62.5 g ai/ha, read-out: Barnyardgrass damage rating (100=total damage to plant; 0=no damage to plant); for pest or weed control at 62.5 g/ha / pest or weed control at 250 g/ha: evaluated after 13 days; for pest or weed control at 250 g/ha: 250 g ai/ha, read-out: damage to plant, Barnyardgrass (100=total damage to plant; 0=no damage to plant)
In short: as §2

[10] = test system: giant foxtail (Setaria faberi); assay: Test G Post-Emergence Protocol; conditions: Setaria faberi, post-emergence, 312 h; for pest or weed control at 15.625 g/ha: 15.625 g ai/ha, evaluated after 13 days (100=total damage to plant; 0=no damage to plant), read-out: Foxtail, Giant damage rating; for pest or weed control at 62.5 g/ha: 62.5 g ai/ha, read-out: Foxtail, Giant damage rating (100=total damage to plant; 0=no damage to plant); for pest or weed control at 62.5 g/ha / pest or weed control at 250 g/ha: evaluated after 13 days; for pest or weed control at 250 g/ha: 250 g ai/ha, read-out: damage to plant, Foxtail, Giant (100=total damage to plant; 0=no damage to plant)
In short: as §2

[11] = test system: velvetleaf (Abutilon theophrasti); assay: Test G Post-Emergence Protocol; conditions: Abutilon theophrasti, post-emergence, 312 h; for pest or weed control at 15.625 g/ha: 15.625 g ai/ha, evaluated after 13 days (100=total damage to plant; 0=no damage to plant), read-out: Velvetleaf damage rating; for pest or weed control at 62.5 g/ha: 62.5 g ai/ha, read-out: Velvetleaf damage rating (100=total damage to plant; 0=no damage to plant); for pest or weed control at 62.5 g/ha / pest or weed control at 250 g/ha: evaluated after 13 days; for pest or weed control at 250 g/ha: 250 g ai/ha, read-out: damage to plant, Velvetleaf (100=total damage to plant; 0=no damage to plant)
In short: as §2

[12] = test system: ivy-leaved morning glory (Ipomoea hederacea); assay: Test G Post-Emergence Protocol; conditions: Ipomoea, post-emergence, 312 h; for pest or weed control at 15.625 g/ha: 15.625 g ai/ha, evaluated after 13 days (100=total damage to plant; 0=no damage to plant), read-out: Morningglory, Ivy-leaved damage rating; for pest or weed control at 62.5 g/ha: 62.5 g ai/ha, read-out: Morningglory, Ivy-leaved damage rating (100=total damage to plant; 0=no damage to plant); for pest or weed control at 62.5 g/ha / pest or weed control at 250 g/ha: evaluated after 13 days; for pest or weed control at 250 g/ha: 250 g ai/ha, read-out: damage to plant, Morningglory, Ivy-leaved (100=total damage to plant; 0=no damage to plant)
In short: as §2

SMILES	plant injury at 15.625 g/ha (corn (Zea mays) [1]) [%]	plant injury at 62.5 g/ha (corn (Zea mays) [1]) [%]	plant injury at 250 g/ha (corn (Zea mays) [1]) [%]	pest or weed control at 15.625 g/ha [2] [%]	pest or weed control at 62.5 g/ha [2] [%]	pest or weed control at 250 g/ha [2] [%]	pest or weed control at 15.625 g/ha [3] [%]	pest or weed control at 62.5 g/ha [3] [%]	pest or weed control at 250 g/ha [3] [%]	pest or weed control at 15.625 g/ha [4] [%]	pest or weed control at 62.5 g/ha [4] [%]	pest or weed control at 250 g/ha [4] [%]	pest or weed control at 15.625 g/ha [5] [%]	pest or weed control at 62.5 g/ha [5] [%]	pest or weed control at 250 g/ha [5] [%]	pest or weed control at 15.625 g/ha [6] [%]	pest or weed control at 62.5 g/ha [6] [%]	pest or weed control at 250 g/ha [6] [%]	plant injury at 15.625 g/ha (corn (Zea mays) [7]) [%]	plant injury at 62.5 g/ha (corn (Zea mays) [7]) [%]	further results
Cc1ccc(NC(=O)[C@H]2C(=O)N(C)C[C@@H]2c2ccc(C(F)(F)F)cc2)nc1 (racemic) [Compound 1484]	20	10	30	0	0	20	0	10	30	10	10	30	0	0	0	0	0	0	20	0	plant injury at 250 g/ha (corn (Zea mays) [7]): 30%; pest or weed control at 15.625 g/ha [8]: 10%; pest or weed control at 62.5 g/ha [8]: 0%; pest or weed control at 250 g/ha [8]: 20%; pest or weed control at 15.625 g/ha [9]: 20%; pest or weed control at 62.5 g/ha [9]: 20%; pest or weed control at 250 g/ha [9]: 40%; pest or weed control at 15.625 g/ha [10]: 10%; pest or weed control at 62.5 g/ha [10]: 10%; pest or weed control at 250 g/ha [10]: 30%; pest or weed control at 15.625 g/ha [11]: 0%; pest or weed control at 62.5 g/ha [11]: 0%; pest or weed control at 250 g/ha [11]: 10%; pest or weed control at 15.625 g/ha [12]: 0%; pest or weed control at 62.5 g/ha [12]: 0%; pest or weed control at 250 g/ha [12]: 0%
CN1C[C@@H](c2cc(Cl)nc(C(F)(F)F)c2)[C@H](C(=O)Nc2cccc(F)c2F)C1=O (racemic) [Compound 1485]	40	70	80	0	30	60	60	90	90	60	90	90	0	0	30	0	0	0	40	70	plant injury at 250 g/ha (corn (Zea mays) [7]): 80%; pest or weed control at 15.625 g/ha [8]: 0%; pest or weed control at 62.5 g/ha [8]: 20%; pest or weed control at 250 g/ha [8]: 40%; pest or weed control at 15.625 g/ha [9]: 50%; pest or weed control at 62.5 g/ha [9]: 70%; pest or weed control at 250 g/ha [9]: 70%; pest or weed control at 15.625 g/ha [10]: 60%; pest or weed control at 62.5 g/ha [10]: 70%; pest or weed control at 250 g/ha [10]: 70%; pest or weed control at 15.625 g/ha [11]: 0%; pest or weed control at 62.5 g/ha [11]: 10%; pest or weed control at 250 g/ha [11]: 20%; pest or weed control at 15.625 g/ha [12]: 0%; pest or weed control at 62.5 g/ha [12]: 0%; pest or weed control at 250 g/ha [12]: 20%
CN1C[C@@H](c2cnc(Cl)c(Cl)c2)[C@H](C(=O)Nc2cccc(F)c2F)C1=O (racemic) [Compound 1487]	10	20	70	0	0	80	30	90	80	80	90	90	0	0	30	0	0	20	20	60	plant injury at 250 g/ha (corn (Zea mays) [7]): 70%; pest or weed control at 15.625 g/ha [8]: 20%; pest or weed control at 62.5 g/ha [8]: 0%; pest or weed control at 250 g/ha [8]: 30%; pest or weed control at 15.625 g/ha [9]: 50%; pest or weed control at 62.5 g/ha [9]: 60%; pest or weed control at 250 g/ha [9]: 70%; pest or weed control at 15.625 g/ha [10]: 60%; pest or weed control at 62.5 g/ha [10]: 70%; pest or weed control at 250 g/ha [10]: 70%; pest or weed control at 15.625 g/ha [11]: 0%; pest or weed control at 62.5 g/ha [11]: 0%; pest or weed control at 250 g/ha [11]: 20%; pest or weed control at 15.625 g/ha [12]: 0%; pest or weed control at 62.5 g/ha [12]: 0%; pest or weed control at 250 g/ha [12]: 20%
